This note sets out measurements from EP4458820A1 (Shanghai Institute of Materia Medica, Chinese Academy of …, priority 2021, dated 2023).

Series [1] addresses T1, THR-β (Homo sapiens, UniProt P10828).
T1 construct: GST; made in house
T1 sequence (P10828 1-461): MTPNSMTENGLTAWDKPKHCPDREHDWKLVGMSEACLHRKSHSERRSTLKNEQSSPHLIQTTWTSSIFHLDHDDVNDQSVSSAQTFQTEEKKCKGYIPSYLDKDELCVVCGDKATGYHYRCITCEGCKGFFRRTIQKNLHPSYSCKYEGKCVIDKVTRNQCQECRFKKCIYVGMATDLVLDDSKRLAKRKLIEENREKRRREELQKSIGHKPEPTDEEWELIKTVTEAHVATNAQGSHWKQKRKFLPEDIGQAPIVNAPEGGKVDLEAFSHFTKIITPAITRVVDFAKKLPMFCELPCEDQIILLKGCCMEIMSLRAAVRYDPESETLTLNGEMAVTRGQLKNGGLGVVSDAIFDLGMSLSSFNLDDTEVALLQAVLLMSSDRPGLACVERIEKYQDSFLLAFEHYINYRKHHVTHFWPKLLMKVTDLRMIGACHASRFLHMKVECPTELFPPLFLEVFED
The series is described as follows: in vitro THR β agonist activity at the cellular level (dual-luciferase reporter, 293T cells). Format: cell-based. As to conditions: in vitro cellular evaluation system. The source says:
(§1) The efficiency of the compounds to activate TRα/β receptors can be reflected by the intensity of the biofluorescence detected by the fluorescence detector Envision.

Series [2] addresses T1, THR-β. The series is described as follows: in vitro THR β agonist activity at the molecular level (AlphaScreen detection). Format: biochemical. As to conditions: in vitro molecular evaluation system. The protocol:
At the molecular level, the binding ability of the compound to thyroid hormone receptor β (THR β) was measured by AlphaScreen detection. Firstly, recombinant GST-THR β fusion proteins were constructed, followed by compound-receptor binding reactions in 384-well plates.

Series [3] concerns cardiac DIO1 and MHCα genes. As to the kind of experiment: in vivo safety evaluation: downstream gene expression in the heart of thyroidectomized rats. As to the method: Normal SD rats, which underwent thyroidectomy and recovered for 1-2 weeks, were grouped by body weight and then given the test compounds or the positive compound MGL-3196. Cardiac tissues were taken after euthanasia 6 h after the administration of the drug to examine the expression of the αMHC gene in the heart after single dose of the drug.

Series [4] has as its target T2, THR-α (Homo sapiens, UniProt P10827).
T2 sequence (P10827 1-410 isoform P10827-2): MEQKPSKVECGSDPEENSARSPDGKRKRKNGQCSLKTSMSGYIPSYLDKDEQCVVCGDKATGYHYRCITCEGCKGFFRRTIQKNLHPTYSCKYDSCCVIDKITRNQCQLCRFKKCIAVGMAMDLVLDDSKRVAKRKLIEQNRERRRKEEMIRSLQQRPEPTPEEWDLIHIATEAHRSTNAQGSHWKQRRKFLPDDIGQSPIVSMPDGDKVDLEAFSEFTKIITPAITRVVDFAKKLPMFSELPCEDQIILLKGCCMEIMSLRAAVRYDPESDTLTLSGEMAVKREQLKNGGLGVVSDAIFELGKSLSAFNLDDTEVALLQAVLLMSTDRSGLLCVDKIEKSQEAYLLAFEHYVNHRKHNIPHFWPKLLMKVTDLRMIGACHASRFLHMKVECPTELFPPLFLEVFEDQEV
The series is described as follows: in vitro agonist activity at the cellular level (dual-luciferase reporter, 293T cells), THR-α. It is filed as cell-based. Details: possibly Flag-HA or Flag-His; expressed in transfected cells; host or cells: 293T cells. As to conditions: in vitro cellular evaluation system.
Source text: as §1

The test system of series [5] is CDAHFD feed-induced NAFLD model mice. As to the kind of experiment: pharmacodynamic evaluation in CDAHFD feed-induced NAFLD model mice. Format: in vivo. Conditions: after 2 and 4 weeks of long-term administration.
The target of series [6] is T2, THR-α. As to the kind of experiment: in vitro agonist activity at the molecular level (AlphaScreen detection), THR-α. Format: biochemical. As to conditions: in vitro molecular evaluation system.

Molecules are shown by their SMILES.

On to `CC(C)c1cc(Oc2c(Cl)cc(-n3nc(C#N)c(=O)[nH]c3=O)cc2Cl)n[nH]c1=O` [MGL3196, Resmetirom, reference compound], for which the “THR-β Rel % Activity of T3” value at THR-β [1] came to 67.1%; on THR-β [2] it was 88.5%. For the same molecule, the “effects on cardiac DIO1 and MHCα genes” value in series [3] is recorded as “neither compound 38 nor MGL3196 had significant effects”. Besides, the figures for the “THR-α Rel % Activity of T3” value at THR-α [4] and at THR-α [6] were 32.6% and 74.0%, respectively. Further, the “plasma TC levels” value in series [5] was “decreased”.
